Each structure is given as a SMILES string.

This assay addresses T1, O-GlcNAc transferase (OGT) (Homo sapiens, UniProt O15294).
T1 sequence (O15294 323-1041): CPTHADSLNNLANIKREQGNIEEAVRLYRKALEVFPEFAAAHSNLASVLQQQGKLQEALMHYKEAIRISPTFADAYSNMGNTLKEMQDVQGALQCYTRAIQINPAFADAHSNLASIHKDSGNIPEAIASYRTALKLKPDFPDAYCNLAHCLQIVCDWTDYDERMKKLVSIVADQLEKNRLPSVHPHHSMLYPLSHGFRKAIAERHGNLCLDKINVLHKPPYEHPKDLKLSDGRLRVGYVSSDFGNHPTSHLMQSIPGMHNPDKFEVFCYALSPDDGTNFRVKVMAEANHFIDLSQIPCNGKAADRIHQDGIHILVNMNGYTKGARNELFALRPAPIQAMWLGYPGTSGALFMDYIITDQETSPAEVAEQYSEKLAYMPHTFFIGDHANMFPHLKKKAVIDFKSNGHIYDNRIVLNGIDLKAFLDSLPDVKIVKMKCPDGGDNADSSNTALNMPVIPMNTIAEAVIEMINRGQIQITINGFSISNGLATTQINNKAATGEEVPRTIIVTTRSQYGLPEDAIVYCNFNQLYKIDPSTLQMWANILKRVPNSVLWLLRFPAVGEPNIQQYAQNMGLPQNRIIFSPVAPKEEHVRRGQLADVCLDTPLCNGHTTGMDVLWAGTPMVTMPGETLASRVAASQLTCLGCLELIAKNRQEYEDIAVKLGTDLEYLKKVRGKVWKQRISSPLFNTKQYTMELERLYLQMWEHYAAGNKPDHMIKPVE
Kind of assay: microscale thermophoresis. Type of assay: binding. (In general: MST reads how a fluorescent partner responds to local heating, with and without ligand.)

As to `CC(=O)N[C@H]1[C@@H](OP(=O)(O)OP(=O)(O)OC[C@H]2O[C@@H](n3ccc(=O)[nH]c3=O)[C@H](O)[C@@H]2O)O[C@H](CO)[C@@H](O)[C@@H]1O` [UDP-GlcNAc], the Kd entry was “confirming that the method produced Kds for UDP and UDP-GlcNAc similar to those”.

Regarding `O=c1ccn([C@@H]2O[C@H](COP(=O)(O)OP(=O)(O)O)[C@@H](O)[C@H]2O)c(=O)[nH]1` [UDP], the Kd entry was “confirming that the method produced Kds for UDP and UDP-GlcNAc similar to those”.

The record behind these values is article PMC6261342 (Journal of the American Chemical Society, 2018).
